{"source": "paper PMC7228129", "about": "“Evaluation of Developmental Toxicity, Developmental Neurotoxicity, and Tissue Dose in Zebrafish Exposed to GenX and Other PFAS” (Environmental Health Perspectives, 2020)", "key": {"[1]": {"test_system": "zebrafish", "experiment": "Developmental neurotoxicity (DNT) assay, light/dark locomotor behavior test", "assay_type": "in vivo, Danio rerio", "conditions": "for Developmental neurotoxicity / locomotor activity outcome / Concentration causing hyperactivity in D1 period / Concentration causing hyperactivity in D2 period / Concentration causing hyperactivity in L2 period / Concentration causing hyperactivity in L1 period: tested 6 dpf; for DNT assay phenotype: Table 5 summary, this study (some rows also list literature); for Concentration causing hyperactivity in D1 period: dark 1; for Concentration causing hyperactivity in D1 period / Concentration causing hyperactivity in D2 period / Concentration causing hyperactivity in L2 period / Concentration causing hyperactivity in L1 period: daily 0–5 dpf, vs 0.4% DMSO; for Concentration causing hyperactivity in D2 period: dark 2; for Concentration causing hyperactivity in L2 period: light 2", "experimental": "At 0 dpf, zebrafish embryos were bleached as previously described ([Tal et al. 2017]). A single embryo at the dome-to-epiboly stages ([Kimmel et al. 1995]) was placed into each individual well of a 96-well plate containing a 40-μm nylon mesh filter (Millipore, Catalog No. MANMN4010) with 400μL of 10% Hanks’ balanced salt solution (HBSS) per well. Filter inserts containing zebrafish embryos were transferred to 96-well culture trays (Millipore, Catalog No. MAMCS9610) containing 250μL of 10% HBSS ([Westerfield 2007]) and 1μL of 250× working solutions per well. A final concentration of 0.4% DMSO was used for all exposure groups and as a vehicle control. In the case of GenX Free Acid in Study 2 (Figure 1), DI water was used as a vehicle control. Daily, from 1–5 dpf, plates underwent 100% media changes to refresh chemical dosing solutions by blotting (Brandel; Catalog No. FPXLR-196) and transferring mesh inserts containing zebrafish to new bottom plates (Millipore; Catalog No. MAMCS9610). To minimize evaporation, plates were sealed (Biorad; Catalog No. MSA5001) and wrapped with parafilm. Plates were maintained on a 14 h:10 h light cycle at 26.0°C and scored daily for death, malformations, hatching, and swim bladder inflation. At 6 dpf, plates were evaluated by two independent observers and DevTox or DNT assays were performed or media and tissue were collected for analytical chemistry analyses as described below.\nTo increase the likelihood of observing behavioral effects in morphologically normal larvae, the highest concentration evaluated in the DNT assay was the lowest observed effect concentration (LOEC) determined in DevTox assay. Zebrafish were exposed in parallel to 4.4, 7.9, 14.0, 25.1, 44.8, or 80.0μM PFOA, PFHxS, PFHxA, or ADONA or 0.2, 0.3, 0.6, 1.0, 1.8, or 3.1μM PFOS or 0.4% DMSO. Subsequently, as part of Study 1, exposure to 4.4, 7.9, 14.0, 25.1, 44.8, or 80.0μM PFESA1, or 0.4% DMSO was evaluated. In Study 2, zebrafish were exposed to 4.4, 7.9, 14.0, 25.1, 44.8, or 80.0μM GenX Free Acid, or DI water. In Study 3, to increase the likelihood of observing malformations with shorter-chain compounds at multiple test concentrations, the highest concentration evaluated was 100.0μM . Zebrafish were exposed to 5.5, 9.8, 17.6, 31.4, 56.0, or 100.0μM PFBS; 3.1, 5.5, 9.8, 17.6, 31.4, or 56.0μM PFHxS; 1.7, 3.1, 5.5, 9.8, 17.6, or 31.4μM PFHpS; or 0.5, 1.0, 1.7, 3.1, 5.5, or 9.8μM PFOS, or 0.4% DMSO. Subsequently, as part of Study 3, zebrafish were exposed to 3.1, 5.5, 9.8, 17.6, 31.4, or 56.0μM PFPeS, or 0.4% DMSO. Chemical exposures and assessments were performed daily, as described above. To evaluate swimming behavior in a light/dark behavior test, microtiter plates were placed in a dark, temperature-controlled behavior testing room set to 26.0°C for at least 2 h prior to testing. At the time of testing, microtiter plates were placed on a Noldus tracking apparatus. Locomotor activity was recorded (30 frames/s) for a total of 60 min consisting of a 20-min dark acclimation period (0 lux) that was not analyzed followed by a 40-min testing period consisting of a 20-min light period (5.0 lux) and 20-min dark period (0 lux). Videos were analyzed using Ethovision software (version 3.1; Noldus Information Technology) as previously described ([Jarema et al. 2015]). Locomotor activity was collected for each individual fish for each 2-min period (minimum distance moved, set to 0.135cm ). Thus, for a 40-min test, 20 data points were collected per larvae. […] Four additional criteria for inclusion of individual larvae were applied. One, all larvae that were identified as abnormal, severely abnormal, or dead were excluded. Two, larvae with uninflated swim bladders were removed from analyses. Three, individual larvae that moved <2cm in either […] dark period were removed."}, "[2]": {"experiment": "GenX Free Acid stock degradation / stability in DMSO", "assay_type": "physicochemical", "conditions": "DMSO as diluent/vehicle"}, "[3]": {"test_system": "zebrafish", "conditions": "Table 5 summary, cited from earlier work"}, "[4]": {"test_system": "zebrafish", "conditions": "cited from earlier work; for EC50: previously published zebrafish DevTox assay data, read-out: EC50 for developmental toxicity"}, "[5]": {"conditions": "Study 1, 4.4–80.0 μM daily 0–5 dpf, 0.4% DMSO"}, "[6]": {"conditions": "Study 1, light 1 (first 10 min light)"}}, "note": "Entries after “also recorded” stand apart in the source; their conditions may differ. Where two headings read alike, the source gives them in different places."}
{"smiles": "O=C(O)C(F)(F)C(F)OC(F)(F)C(F)(F)C(F)(F)OC(F)(F)F", "note": "(stereo not drawn) [ADONA, 4,8-Dioxa-3H-perfluorononanoate]", "values": [{"measurement": "Developmental neurotoxicity / locomotor activity outcome", "setting": "[1]; [5]", "value": "did not exhibit differences in locomotor activity; also recorded: failed to provoke developmental toxicity or developmental neurotoxicity; also recorded: negative"}, {"measurement": "DNT assay phenotype", "setting": "[1]", "value": "Negative^a"}]}
{"smiles": "O=C(O)C(F)(OC(F)(F)C(F)(F)C(F)(F)F)C(F)(F)F", "note": "(stereo not drawn) [GenX Free Acid, Perfluoro-2-propoxypropanoic acid]", "values": [{"measurement": "Stability in DMSO", "setting": "[2]", "value": "unstable in DMSO; also recorded: not stable in DMSO"}, {"measurement": "Developmental neurotoxicity / locomotor activity outcome", "setting": "[1]; Study 2, 4.4–80.0 μM in DI water daily 0–5 dpf", "value": "negative; also recorded: failed to provoke developmental toxicity or developmental neurotoxicity"}, {"measurement": "DNT assay phenotype", "setting": "[1]", "value": "Negative^a"}]}
{"smiles": "O=S(=O)(O)C(F)(F)C(F)(F)OC(F)(C(F)(F)F)C(F)(F)OC(F)=C(F)F", "note": "(stereo not drawn) [PFESA1, Perfluoro-3,6-dioxa-4-methyl-7-octene-1-sulfonic acid]", "values": [{"measurement": "Developmental neurotoxicity / locomotor activity outcome", "setting": "[1]; [5]", "value": "did not exhibit differences in locomotor activity; also recorded: failed to provoke developmental toxicity or developmental neurotoxicity; also recorded: negative"}, {"measurement": "DNT assay phenotype", "setting": "[1]", "value": "Negative^a"}]}
{"smiles": "O=C(O)C(F)(F)C(F)(F)C(F)(F)C(F)(F)C(F)(F)F", "note": "[PFHxA, Perfluorohexanoic acid]", "values": [{"measurement": "Developmental neurotoxicity / locomotor activity outcome", "setting": "[1]; [5]", "value": "hyperactivity in the L2, D1, and D2 periods"}, {"measurement": "Concentration causing hyperactivity in D1 period", "setting": "[1]; Study 1", "value": "14.0 to 25.1", "unit": "µM"}, {"measurement": "Concentration causing hyperactivity in D2 period", "setting": "[1]; Study 1", "value": "14.0 to 25.1", "unit": "µM"}, {"measurement": "Concentration causing hyperactivity in L2 period", "setting": "[1]; Study 1", "value": 25.1, "unit": "µM"}, {"measurement": "DNT assay phenotype", "setting": "[1]", "value": "Hyperactivity^a"}]}
{"smiles": "O=S(=O)(O)C(F)(F)C(F)(F)C(F)(F)C(F)(F)C(F)(F)C(F)(F)F", "note": "[PFHxS, Perfluorohexanesulfonic acid]", "values": [{"measurement": "DNT assay phenotype", "setting": "[3]; ref Khezri et al. 2017", "value": "Negative"}, {"measurement": "Concentration causing hyperactivity in L1 period", "setting": "[1]; [6]", "value": "14.0 to 25.1", "unit": "µM"}, {"measurement": "Concentration causing hyperactivity in L2 period", "setting": "[1]; Study 1", "value": 14.0, "unit": "µM"}, {"measurement": "Concentration causing hyperactivity in D1 period", "setting": "[1]; Study 3", "value": 17.6, "unit": "µM"}, {"measurement": "Concentration causing hyperactivity in D2 period", "setting": "[1]; Study 3", "value": 17.6, "unit": "µM"}, {"measurement": "Concentration causing hyperactivity in L2 period", "setting": "[1]; Study 3", "value": "17.6 to 31.4", "unit": "µM"}, {"measurement": "DNT assay phenotype", "setting": "[1]", "value": "Hyperactivity^a"}, {"measurement": "EC50", "setting": "[4]; ref Padilla et al. 2012", "value": 116, "unit": "µM"}, {"measurement": "EC50", "setting": "[4]; ref Truong et al. 2014", "value": 115, "unit": "µM"}]}
{"smiles": "O=C(O)C(F)(F)C(F)(F)C(F)(F)C(F)(F)C(F)(F)C(F)(F)C(F)(F)F", "note": "[PFOA, Perfluoro-n-octanoic acid]", "values": [{"measurement": "DNT assay phenotype", "setting": "[3]; ref Ulhaq et al. 2013b", "value": "Hyperactivity"}, {"measurement": "Developmental neurotoxicity / locomotor activity outcome", "setting": "[1]; [5]", "value": "did not exhibit differences in locomotor activity; also recorded: negative"}, {"measurement": "DNT assay phenotype", "setting": "[1]", "value": "Negative"}, {"measurement": "DevTox assay phenotype", "setting": "[4]; Table 5 summary, zebrafish, ref Hagenaars et al. 2011, Jantzen et al. 2016, Ulhaq et al. 2013a", "value": "Positive"}]}
{"smiles": "O=S(=O)(O)C(F)(F)C(F)(F)C(F)(F)C(F)(F)C(F)(F)C(F)(F)C(F)(F)C(F)(F)F", "note": "[PFOS, Perfluorooctanesulfonic acid]", "values": [{"measurement": "DNT assay phenotype", "setting": "[3]; ref Ulhaq et al. 2013b", "value": "Hypoactivity"}, {"measurement": "Concentration causing hyperactivity in D1 period", "setting": "[1]; Study 1", "value": "0.6 to 1.8", "unit": "µM"}, {"measurement": "Concentration causing hyperactivity in L1 period", "setting": "[1]; [6]", "value": 1.0, "unit": "µM"}, {"measurement": "Concentration causing hyperactivity in L2 period", "setting": "[1]; Study 1", "value": "0.6 to 1.8", "unit": "µM"}, {"measurement": "Concentration causing hyperactivity in D1 period", "setting": "[1]; Study 3", "value": 1.0, "unit": "µM"}, {"measurement": "Concentration causing hyperactivity in D2 period", "setting": "[1]; Study 3", "value": "no effect"}, {"measurement": "Concentration causing hyperactivity in L1 period", "setting": "[1]; Study 3, light 1", "value": "1.7 to 3.1", "unit": "µM"}, {"measurement": "Concentration causing hyperactivity in L2 period", "setting": "[1]; Study 3", "value": "1.7 to 3.1", "unit": "µM"}, {"measurement": "DNT assay phenotype", "setting": "[1]", "value": "Hyperactivity"}, {"measurement": "EC50", "setting": "[4]; ref Padilla et al. 2012", "value": 42.3, "unit": "µM"}, {"measurement": "EC50", "setting": "[4]; ref Truong et al. 2014", "value": 3.5, "unit": "µM"}]}
